Laboratory results taken from patent US8552060B2, “Methods for treatment of sexual dysfunction” (SK Biopharmaceuticals Co., Ltd., priority 2005, dated 2013).

Columns and labels:
[1] = system: rats and mice; test: Locomotor activity in rats and mice; assay type: in vivo; settings: at higher dose
Text: Although the mechanism of action of test compound is unknown, this pharmacological profile may involve activation of central catecholaminergic pathways.

[2] = system: humans; test: Placebo controlled antidepressant trial in humans, analysis of post trial questionnaires; assay type: in vivo, human; settings: mostly in males
Text: This was a large placebo controlled study where the test compound was compared with a conventional SSRI antidepressant (Paroxetine). […] This study was not designed to see or evaluate this property of the compound and so future studies directed specifically to assess this property of test compound in humans will be performed.

[3] = system: ovariectomized estrogen treated rat; test: Lordotic response in the ovariectomized estrogen treated rat (female sexual behavior); assay type: in vivo
Procedure: For initial preclinical evaluation of the effects on sexual behavior, the following study was conducted to evaluate the effects of test compound on lordotic response in the ovariectomized estrogen treated rat.
Animals: Long-Evans hooded female rates (100-125 g) male Sprague-Dawley rats (150-175 g) were obtained from Charles River Breeding laboratories.
Chemicals: Progesterone (Cat. # P-0130; Lot 128H0456) and estrone (Cat # E-9750; Lot 28H0372) were purchased from Sigma Chemical Company and quinelorane Cat # Q-110; Lot PRF-694A) and bupropion (Cat # B-102; BS-11-10) were purchased from Research Biochemicals Incorporated. Test compound (Lot # D5-91B) was synthesized at SK Biopharmaceutical Center, Fairfield, N.J. Estrone and progesterone were dissolved in propylene glycol (Fisher Scientific P355-1; Lot # 992032). test compound, quinelorane and bupropion were dissolved in sterile saline (0.9% NaCl, Abbott Laboratories Lot #25-270-DK).
Protocol for ovariectomy: Female rats (108-120 g) were anesthetized with 100 mg/kg s.c. ketamine (Ketaset 100 mg/ml, Ford Dodge Laboratories, lot #440339) and 7 mg/kg s.c. xylazine (Rompun 20 mg/ml, Bayer Corporation, lot #26050E). A midline incision (1 cm) on the ventral surface was made starting approximately 0.5-1 cm from the genitalia. A second incision (1 cm) was through the linea alba connecting fascia for abdominal muscles. The body of the uterus was located near the pubic bone and retracted through the abdominal incision. The uterine horns with ovaries were retracted through the abdominal wall. Each uterine horn was ligated near the uterine body bisected and removed. The abdominal, wall was closed with 2 sutures and the skin incision was closed with either wound clips or sutures. The rats were kept warm until they recovered from the anesthesia. OVX=ovariectomized.
Accelerated light cycle (10:14): Lights were on from 1 am to 11 am. During dark phase, the room was kept dark except for lighting from red lights needed to observe the behaviors.
Behavior observation arenas: Side walls (45×60 cm) and top (60×60 cm) with hole (15×15 cm) were constructed of clear Lucite plastic and bonded together with adhesive. The base was made from stainless steel grating and was placed over bedding material. Arenas and base were washed between experiments.
Protocol for female sexual behavior: At least 2-3 hours into the dark phase of the lighting cycle, male rats are placed into the behavior arenas and allowed to acclimate for 15 minutes prior to testing. Prior to the testing of experimental animals, the males are exposed to sexually receptive, OVX rats treated with estrone 0.25 mg s.c. 48 hours prior to test and progesterone 1 mg s.c. 6 hours prior to test. When active mating occurs, the receptive females are removed. The test female (OVX treated only with estrone 0.25 mg 48 hours prior to test) is added to the arena with the activated male. The number of lordosis responses for 15 mounts is recorded (lordosis is defined as a downward arching of the back to expose genitalia).
During this first test period, only female rats with a L/M of 4/15 or lower were treated with test drug and 90 minutes later the rats were retested as previously for 15 mounts. This exclusion criterion is used to lower the variance due to rats that become overly receptive to estrone. The index of change is the change in L/M between test 2 and test 1. Statistical comparisons of the treatment groups were made using ANOVA followed by a Dunnett's test for multiple treatment group designs and a Student's t test for single control and treatment designs with the minimum level of significance set at p<0.05.

[4] = system: patients; settings: Foreman 1995; cited from earlier work

Structure (SMILES): NC(=O)OC[C@H](N)Cc1ccccc1 [test compound, O-carbamoyl-(D)-phenylalaninol]
- Effects on locomotor activity [1]: stimulant-like effects on locomotor activity
- Dose of peak effect on interest in sex and ability to have an orgasm [2]: 400 mg per day
- Effect on interest in sex and ability to have an orgasm (post trial questionnaires) ([2]; placebo controlled study with Paroxetine comparator): increasing interest in sex and in ability to have an orgasm
- Change in Lordotic Response ([3]; 10 mg/kg s.c., change in L/M between test 2 and test 1, retest 90 minutes after drug, OVX estrone treated female rats): 0.338 +/− 0.049
- Change in Lordotic Response ([3]; 30 mg/kg s.c., change in L/M between test 2 and test 1, retest 90 minutes after drug, * significantly different from vehicle (ANOVA, Dunnett's test)): 0.476 +/− 0.049 *
- Change in Lordotic Response ([3]; 100 mg/kg s.c., change in L/M between test 2 and test 1, retest 90 minutes after drug, * significantly different from vehicle (ANOVA, Dunnett's test)): 0.559 +/− 0.059 *
- Lordotic response compared to vehicle treatment ([3]; 30 and 100 mg/kg s.c.): significantly greater lordotic response than vehicle treatment
- Lordotic behavior in the female rat, dose relation ([3]; doses of 10, 30 and 100 mg/kg s.c.): dose-related increases in lordotic behavior

Structure (SMILES): CC(NC(C)(C)C)C(=O)c1cccc(Cl)c1 (centres unmarked) [Bupropion, bupropion, reference compound]
- Effect on sexual response in patients [4]: augment sexual response in patients
- Lordotic response compared to vehicle treatment ([3]; 30 mg/kg s.c.): significant increases in lordotic response
- Change in Lordotic Response ([3]; 30 mg/kg s.c., change in L/M, * significantly different from vehicle (Student's test)): 0.478 +/− 0.073 *

Structure (SMILES): CCCN1CCC[C@@H]2Cc3nc(N)ncc3C[C@H]21 [Quinelorane, quinelorane, reference compound]
- Effect on sexual response in patients [4]: augment sexual response in patients
- Lordotic response compared to vehicle treatment ([3]; 25 μg/kg s.c.): significant increases in lordotic response
- Change in Lordotic Response ([3]; 25 μg/kg s.c., change in L/M, * significantly different from vehicle (Student's test)): 0.593 +/− 0.056 *
